For the assay, the system named is CEM cells HIV-1 protection, formazan growth assay. Nature of the assay: NCI AIDS Antiviral Assay. The following applies: for IC50: measured here: growth of uninfected CEM cells. The gist of the method:
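Human CEM cells, uninfected and HIV-1-infected, received five drug concentrations, and growth was read by soluble formazan assay. Compounds giving at least 50% protection were retested; reproducible 100% protection defined confirmed active.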

The structures appear in SMILES notation. “And” between values parts separate entries of the source, which are not always exact repeats. Equal entries are not always repeated. The source made the active and inactive calls.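 How the source made its calls: active means compounds giving half or more protection of infected cells from virus-caused growth loss, again on retest; inactive means the rest.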 Bounds are passed on as bounds.

In the case of `O=c1[nH]c(=O)n2c3c1ncn3CC=CC2`, the EC50 is over 35.5 µM and the IC50 was determined as 17 µM.

Consider `CNS(=O)(=O)NNS(=O)(=O)c1ccccc1`, for which the EC50 was over 933 µM and the IC50 is over 200 µM.

As to `Oc1ccc(-c2nc(-c3ccc(F)cc3)c(-c3ccc4ccccc4n3)[nH]2)cc1`, the EC50 is over 200 µM and the IC50 is 21.4 µM. On to `OC1C2C=CCC1CCC2` (stereo not drawn), for which the result was inactive. As to `CC(=O)c1ccc([Se][Se]c2ccc(C(C)=O)cc2)cc1`, the EC50 was over 18.2 µM and the IC50 turned out to be 3.72 µM. Turning to `CCCCCCCCCCCCOC1C(COCCN2CCCCC2)OC2OC(C)(C)OC21` (stereo not drawn), the EC50 was over 200 µM and the concentration for half-maximal inhibition (IC50) is 2.63 µM.

Regarding `O=C1CCCN1CC#CCN1C[C@@H]2C3CCC(C3)[C@@H]2C1`, the EC50 is over 200 µM and the IC50 was found to be 170 µM. Taken in the same sequence, the figures for `C[C@@]12C(=O)OC(=O)[C@]1(C)[C@H]1CC[C@@H]2O1` were over 347 µM and 4.9 µM. On the same counts, the results for `CC(C)=CC(=O)OC1C2C(C)=CC(=O)C(O)C2(C)C2C3(O)OCC24C(CC(=O)OC14)C(C)C3O` (stereo not drawn) are over 0.2 µM and 0.0112 µM.

Take `Cc1cn(CC2OC(CO)C(CO)O2)c(=O)[nH]c1=O` (stereo not drawn): the EC50 was over 457 µM and the IC50 was over 457 µM. As to `C/C=C/C=N/N(c1nnc(-c2ccccc2)c(-c2ccccc2)n1)S(=O)(=O)c1ccc(C)cc1`, the EC50 is over 21.4 µM and the IC50 worked out at 7.59 µM. On to `C[C@H]1c2c([nH]c(=O)[nH]c2=O)O[C@@H]1c1ccccc1`, for which the EC50 is over 200 µM and the IC50 is over 200 µM. Turning to `CC1=Nc2c(C#N)ncn2N=C(C)C1`, the EC50 is over 200 µM and the IC50 was over 200 µM. For `COc1ccc(C2C3C(=O)C=CC(=O)C3[C@@H]2C)cc1OC` (stereo partly drawn), the EC50 was over 174 µM and the IC50 came to 13.2 µM. In the case of `Nn1c(=S)[nH]c2ccccc2c1=O`, the EC50 was over 200 µM and the IC50 is over 200 µM. Regarding `Clc1cc2nc(C3CCCO3)[nH]c2cc1Cl` (stereo not drawn), the EC50 is over 200 µM and the IC50 was determined as 66.1 µM. On the same counts, the results for `C1CN1c1nc(N2CC2)nc(N2CC2)n1` are over 91.2 µM and 1.05 µM. On the same counts, the results for `CS(=O)(=O)OC1CCC2(C#N)CCC1C2=O` (stereo not drawn) are over 1020 µM and over 1020 µM. On the same counts, the results for `C1=C(c2ccccc2)Nc2ccccc2N=C1c1ccccc1` are over 200 µM and over 200 µM. On to `Nc1nc(SSc2nc(N)nc3c2ncn3C2CC(O)C(CO)O2)c2ncn(C3CC(O)C(CO)O3)c2n1` (stereo not drawn), for which the EC50 was over 200 µM and the IC50 stood at 9.33 µM. On the same counts, the results for `COC(=O)c1cc2ccc(OC(C)=O)c(OC(C)=O)c2cn1` are over 166 µM and 0.851 µM. On the same counts, the results for `CN(C)c1nc(N(C)C)nc(N(C)C23CC4CC(CC(C4)C2)C3)n1` are over 200 µM and 64.6 µM. In the case of `CC1C=CC(C(=O)O)C2C(=O)OC(=O)C12` (stereo not drawn), the EC50 is over 1200 µM and the IC50 was over 1200 µM.

In the case of `Cc1cnc(SCCN2CCN(C)CC2)nc1-c1cc2ccccc2s1`, the EC50 was over 646 µM and the IC50 worked out at 1.29 µM. Regarding `Cc1cc(C)cc(/C(C#N)=C/c2ccc(N(C)C)cc2)c1`, the EC50 is over 2 µM and the IC50 is 0.102 µM.

For `CN(C)CCC(=O)c1ccc(Cl)cc1`, the EC50 is over 107 µM and the IC50 came to 27.5 µM. Consider `O=C(O/N=C1/CCCC/C1=C\c1ccccc1)c1ccc(Cl)cc1`, for which the result was inactive. With `CN(CCS(=O)(=O)N1C(=O)C2CCCN2C(=O)[C@@H]1Cc1ccccc1)C(=O)OCc1ccccc1` (stereo partly drawn), the EC50 was over 50.1 µM and the IC50 was over 50.1 µM. With `O=C1c2ccccc2S(=O)(=O)N1Sc1ccccc1[N+](=O)[O-]`, the EC50 is over 200 µM and the IC50 was found to be 17 µM. With `OC(CBr)C(O)C(O)C(O)CBr` (stereo not drawn), the outcome was inactive. As for `O=C(NN1C(=O)C(Cl)C1c1ccccc1Cl)c1ccccc1O` (stereo not drawn), the EC50 was over 14.8 µM and the IC50 was over 14.8 µM. With `Cc1cc2c(cc1C)[n+](=O)c(C(=O)C/C(=N/OCCCc1ccccc1)C(=O)Nc1cc(Cl)ccc1Cl)c(C)n2[O-]`, the EC50 was over 6.31 µM and the IC50 is over 6.31 µM. With `Cc1c(C)c(C)c(Cn2[nH]c(=O)n(C)c2=O)c(C)c1C`, the EC50 was over 200 µM and the IC50 was over 200 µM. Regarding `COc1cc(O)c(C(=O)/C=C/c2ccc(Cl)c(Cl)c2)c(OC)c1`, the EC50 is over 200 µM and the IC50 worked out at 3.02 µM. On the same counts, the results for `COc1ccccc1C1C(Cl)C(=O)N1NC(=O)Cc1ccccc1` (stereo not drawn) are over 39.8 µM and over 39.8 µM. On the same counts, the results for `O=C(Nc1ccc(-c2ccccn2)oc1=O)c1ccccc1` are over 200 µM and over 200 µM. On the same counts, the results for `CCOC(=O)C(=O)NC12CC3CC(CC(C3)C1)C2` are over 724 µM and over 724 µM. Turning to `CCOC(=O)c1c(-c2ccccc2)csc1N`, the EC50 is over 123 µM and the IC50 turned out to be 107 µM.

Take `O=C1C=C[C@@]23C=Cc4ccccc4C2CC(O)C1C3` (stereo partly drawn): the EC50 was over 245 µM and the IC50 was found to be 135 µM. Regarding `COc1c2oc(=O)ccc2c(Br)c2c(Br)c(Br)oc12`, the EC50 is over 102 µM and the IC50 came out at 47.9 µM.

With `O=C(CO)CC(=O)C(=O)Nc1cccc(C(F)(F)F)c1`, the outcome was inactive. In the case of `N#C/C(=C\c1ccc(Cl)cc1)c1nc2ccccc2c(=O)[nH]1`, the outcome was inactive. Same read-out and setting: to `CC1=NC(C(=O)O)Cc2c1[nH]c1ccccc21` (stereo not drawn) belongs “inactive”. For `O=C(O)c1c([N+](=O)[O-])cc(C(F)(F)F)cc1[N+](=O)[O-]`, the result was inactive. Consider `Cc1[nH]c(N)nc(=S)c1CCC(=O)O`, for which the EC50 was over 200 µM and the IC50 was over 200 µM.

For `CCCC(CCN)(CCN)[N+](=O)[O-]`, the EC50 is over 200 µM and the IC50 is over 200 µM.

As for `CCN(CC)CCC(=O)NC1c2ccc(Cl)cc2Oc2c(C)cccc21` (stereo not drawn), the EC50 is over 200 µM and the IC50 is 9.55 µM. Regarding `COc1ccc(CN=CN/C(C#N)=C(\N)C#N)cc1OC`, the EC50 is over 200 µM and the IC50 was over 200 µM. For `Cc1cccc(C(C)(C)C)c1NC(=O)C(C#N)C1=C(Cl)C(=O)c2ccccc2C1=O` (stereo not drawn), the EC50 was over 107 µM and the IC50 was found to be 22.9 µM. Taken in the same sequence, the figures for `Nc1ncnc2nc(C(O)C(O)C(O)CO)[nH]c12` (stereo not drawn) were over 102 µM and over 102 µM. In the case of `O=c1ccn(C2OC(CO)C(O)C2[Se]c2ccccc2)c(=O)[nH]1` (stereo not drawn), the EC50 was over 200 µM and the IC50 was over 200 µM.

As to `CCN(CC)CCNc1ccc2ncn3c4c(OC)ccc(=O)c4c(O)c1c23`, the EC50 was over 50.1 µM and the concentration for half-maximal inhibition (IC50) amounted to 0.0219 µM. On the same counts, the results for `Cc1cc(Cl)ccc1C(=O)c1ccc2ccccc2c1C(=O)O` are over 550 µM and 126 µM. In the case of `Nc1ccn(C2OC(CO)C(O)C2Br)c(=O)n1` (stereo not drawn), the EC50 is over 200 µM and the IC50 turned out to be 0.0631 µM. For the molecule `COc1ccc2c(CCNC(C)=O)c(C(C)=O)[nH]c2c1`, the outcome was inactive. For the molecule `O=C(NCCCN1CC2CCCC2C1)C(C1CCCCC1)C1CCCCC1` (stereo not drawn), the EC50 is over 200 µM and the IC50 is 11.5 µM. Taken in the same sequence, the figures for `N#CC1(C#N)C(=O)c2ccncc2C1=O` were over 200 µM and over 200 µM.

`CCCCNC(=O)Sc1ccccc1C(=O)NCCS(N)(=O)=O`: the EC50 worked out at 0.141 µM and the 50% inhibitory concentration (IC50) was 50.1 µM.

As to `CCOC(=O)/C=C(/c1cc(C)[nH]c1C)N(CC)CC`, the EC50 was over 200 µM and the IC50 was over 200 µM. As for `CN(Cc1c(S)ccc2ccccc12)Cc1c(S)ccc2ccccc12`, the EC50 is over 100 µM and the IC50 amounted to 17 µM. Take `CN(C)C1=NC2=S(SC(Nc3ccccc3)=N2)S1` (stereo not drawn): the outcome was inactive. On to `O=C1C(Cl)N(c2ccccc2Cl)C1c1c[nH]c2ccccc12` (stereo not drawn), for which the EC50 was over 398 µM and the IC50 was over 200 µM. On the same counts, the results for `Cc1ccc(/C(C#N)=C/c2ccccc2)cc1` are over 200 µM and 28.8 µM. Consider `CCOP(=O)(CC(=O)c1ccccc1)OCC`, for which the EC50 was over 977 µM and the IC50 is over 977 µM. For the molecule `O=c1[nH]c2nc3ccccc3nc2[nH]c1=O`, the IC50 was > 200 µM and 151 µM. Take `CCOC(=O)C1=C(c2ccccc2)NC(c2ccccc2)=C(C(=O)OCC)c2c1c(=O)cc[nH]c2=O`: the EC50 was over 53.7 µM and the IC50 is over 53.7 µM.

With `O=c1oc2cc(O)ccc2c(O)c1Cc1c(O)c2ccc(O)cc2oc1=O`, the EC50 was over 200 µM and the IC50 was determined as 162 µM. On to `CN(C)CCOc1ccc(-c2c(Oc3ccc(Cl)cc3)c(=O)oc3ccccc23)cc1`, for which the EC50 is over 200 µM and the IC50 was 8.13 µM. Turning to `O=C1c2ccccc2-c2c3c(cc4ccnc1c24)OCO3`, the outcome was inactive. As to `COc1cc2c3c(n(C)c(=O)c2cc1OC)-c1cc2c(cc1C3=O)OCO2`, the EC50 was over 14.5 µM and the half-inhibitory concentration (IC50) was 0.891 µM.

`Cc1ccc(S(=O)(=O)c2[nH]cc(/C(=C\C3CCCCC3)[N+](=O)[O-])c2C2CCCCC2)cc1`: the EC50 is over 2 µM and the IC50 was determined as 1.15 µM. Taken in the same sequence, the figures for `CN(CCCNC(=O)c1cc(-c2ccccc2)nc2ccccc12)CCCNC(=O)c1cc(-c2ccccc2)nc2ccccc12` were over 20 µM and 3.39 µM.

As to `NC(=O)/C=C/c1c[nH]c2nccnc12`, the EC50 is over 191 µM and the IC50 is 0.977 µM.

In the case of `COc1ccc(C(c2cc3c(cc2O)OCO3)N2CCOCC2)c(OC)c1` (stereo not drawn), the EC50 is over 95.5 µM and the IC50 is 7.94 µM.

Take `CC1=C(C(=O)Nc2ccccc2)C(c2cc(Cl)cc(Cl)c2)C(C(=O)Nc2ccccc2)=C(C)N1`: the EC50 was over 14.5 µM and the IC50 is over 14.5 µM. In the case of `CC1(C)N/C(=C\[N+](=O)[O-])C(C)(C)N1O`, the EC50 is over 200 µM and the IC50 is over 200 µM. Turning to `NC(Cc1ccc(OCc2ccccc2)cn1)C(=O)O` (stereo not drawn), the EC50 is over 200 µM and the IC50 is over 200 µM.

In general, EC50 refers to the concentration that produces a half-maximal response. Broadly, the IC50 is the midpoint of a concentration-inhibition curve. The low end stands for greater potency, the high end for weaker potency.

Source of the values: PubChem BioAssay AID179 (DTP/NCI, 2004).
